How the values were obtained:
Collagen translation = test: Tissue selectivity of collagen translation modulator (FIG. 3); assay type: cell-based
Procedure: Primary human pulmonary fibroblasts (HPF, PromoCell C-12360) were maintained in fibroblast growth medium 2 (PromoCell C-23020) according to manufacture instruction. Collagen synthesis was inducted using the same cocktail as for the WI-38 cells.
Primary human dermal fibroblasts (HDF) (PromoCell C-12302) were maintained in PromoCell's proprietary Fibroblast Growth Medium 2 (ready-to-use, Cat. C-23020). For collagen synthesis induction, cells were seeded on experimental plates for 24 hours followed by addition of collagen induction cocktail. Tested compounds were added together with induction.

Collagen type-I = Collagen type-I immunofluorescence and Col-I mRNA FISH in WI-38 Human Lung Fibroblasts (FIG. 4); assay type: cell-based; conditions: 96 hours incubation (immunofluorescence), 24 hours incubation (FISH of Col-I mRNA)
Procedure: FIG. 4A: WI-38 Human Lung Fibroblasts, 96 hours incubation with compounds. White: Collagen type-I; Gray: DAPI. Immunofluorescence. FIG. 4B: WI-38 Human Lung Fibroblasts, 24 hours incubation with compounds. FISH analysis. White: Col-I mRNA; Gray: DAPI.
Cells in 96-well or 384-well plates were fixed for 20 min in 4% paraformaldehyde (PFA, ENCO, Cat. sc-281692). Following two washes with 1×PBS, cells were treated with hydrogen peroxide (Acros, Cat: 7722-84-1) for 10 minutes and then washed twice with 1×PBS. Cells were then incubated over-night at 4° C. with Anti-Collagen I (Sigma-Aldrich, Cat: C 2456) antibody and washed three times with 1×PBS. […]
Cell images were taken with Operetta (Perkin Elmer, USA), a wide-field fluorescence microscope at 20× magnification. […] In Columbus, cells were identified by their nucleus, using the “Find Nuceli” module and cytoplasm was detected based on the secondary antibody channel. […]
Following RNA FISH experiments, images of cells were taken with Operetta (Perkin Elmer, USA), a wide-field fluorescence microscope at 20× magnification. […] In Columbus, cells were identified by their nucleus, using the “Find Nuceli” module, cytoplasm was detected based on the FISH-channel, and single mRNAs in the cytoplasm and transcription sites in the nucleus were detected using “Find Spots” module. […]

collagen 1 (COL1) = test: WI-38 collagen 1 inhibition assay; assay type: cell-based, human; conditions: Cellular EC50, WI-38 cells; values are classes of LogEC50
Method in brief: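 WI-38 fibroblasts serum-starved (0.25% FBS 2 h, then none 24 h), then given a collagen induction cocktail together with compound. Cells fixed, immunostained for collagen I with DAPI counterstain, and imaged at 20×; per-cell fluorescence quantified by image analysis.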

Compound	tissue selectivity (Collagen translation)	level of action on collagen synthesis (Collagen type-I)	COL1 Efficacy (LogEC50) (collagen 1 (COL1))
O=C(Nc1nc(-c2ccccc2Cl)cs1)c1ccc(N2CCOCC2)cc1 [compound 327, N-[4-(2-chlorophenyl)thiazol-2-yl]-4-morpholino-benzamide]	tissue selective	act at the level of translation	+++ (+++: <−6)
CC(=O)N1CCN(c2ccc(C(=O)Nc3nc(-c4ccccc4Cl)cs3)nc2)CC1 [compound 442, 5-(4-acetylpiperazin-1-yl)-N-(4-(2-chlorophenyl)thiazol-2-yl)picolinamide]	–	–	+++ (+++: <−6)
CC(=O)N1CC2(C1)CN(c1ccc(C(=O)Nc3nc(-c4ccccc4Cl)cs3)nc1)C2 [compound 449, 5-(6-acetyl-2,6-diazaspiro[3.3]heptan-2-yl)-N-(4-(2-chlorophenyl)thiazol-2-yl)picolinamide]	–	–	+++ (+++: <−6)
O=C(Nc1nc(-c2ccccc2Cl)cs1)c1ccc(C(=O)N2CCNCC2)cn1 [compound 451, N-(4-(2-chlorophenyl)thiazol-2-yl)-5-(piperazine-1-carbonyl)picolinamide]	–	–	++ (++: −5 to −6)
CN1CCC2(CCN(c3ccc(C(=O)Nc4nc(-c5ccccc5Cl)cs4)nc3)CC2)C1=O [compound 452, N-(4-(2-chlorophenyl)thiazol-2-yl)-5-(2-methyl-1-oxo-2,8-diazaspiro[4.5]decan-8-yl)picolinamide]	–	–	+++ (+++: <−6)
CN1CC2(CCN(c3ccc(C(=O)Nc4nc(-c5ccccc5Cl)cs4)nc3)CC2)C1 [compound 456, N-(4-(2-chlorophenyl)thiazol-2-yl)-5-(2-methyl-2,7-diazaspiro[3.5]nonan-7-yl)picolinamide]	–	–	+++ (+++: <−6)
CNCc1ccccc1-c1csc(NC(=O)c2ccc(N3CCN(S(C)(=O)=O)CC3)cn2)n1 [compound 457]	–	–	− (−: inactive)
CC(=O)N1CCN(c2cnc(C(=O)Nc3nc(-c4ccccc4Cl)cs3)c(C)c2)CC1 [compound 458, 5-(4-acetylpiperazin-1-yl)-N-(4-(2-chlorophenyl)thiazol-2-yl)-3-methylpicolinamide]	–	–	+++ (+++: <−6)
CN1CC2(C1)CN(c1ccc(C(=O)Nc3nc(-c4ccccc4Cl)cs3)nc1)C2 [compound 459]	–	–	− (−: inactive)
O=C(Nc1nc(-c2ccccc2Cl)cs1)c1ccc(N2CCN3CCCC3C2)cn1 (stereo not drawn) [compound 461, N-(4-(2-chlorophenyl)thiazol-2-yl)-5-(hexahydropyrrolo[1,2-a]pyrazin-2(1H)-yl)picolinamide]	–	–	+++ (+++: <−6)
C[C@H]1COCCN1c1ccc(C(=O)Nc2nc(-c3ccccc3Cl)cs2)nc1 [compound 464, (S)—N-(4-(2-chlorophenyl)thiazol-2-yl)-5-(3-methylmorpholino)picolinamide]	–	–	+++ (+++: <−6)
O=C(Nc1nc(-c2ccccc2Cl)cs1)c1ccc(N2CCCC2=O)cn1 [compound 465]	–	–	− (−: inactive)
COCc1ccccc1-c1csc(NC(=O)c2ccc(N3CCN(C(C)=O)CC3)cn2)n1 [compound 469, 5-(4-acetylpiperazin-1-yl)-N-(4-(2-(methoxymethyl)phenyl)thiazol-2-yl)picolinamide]	–	–	+++ (+++: <−6)
CC(=O)N1CCN(c2ccc(C(=O)Nc3nc(-c4ccccc4CO)cs3)nc2)CC1 [compound 470, 5-(4-acetylpiperazin-1-yl)-N-(4-(2-(hydroxymethyl)phenyl)thiazol-2-yl)picolinamide]	–	–	+++ (+++: <−6)
COCc1ncccc1-c1csc(NC(=O)c2ccc(N3CCN(C(C)=O)CC3)cn2)n1 [compound 471, 5-(4-acetylpiperazin-1-yl)-N-(4-(2-(methoxymethyl)pyridin-3-yl)thiazol-2-yl)picolinamide]	–	–	+++ (+++: <−6)
CC(=O)N1CCN(c2ccc(C(=O)Nc3nc(-c4cccnc4CO)cs3)nc2)CC1 [compound 472, 5-(4-acetylpiperazin-1-yl)-N-(4-(2-(hydroxymethyl)pyridin-3-yl)thiazol-2-yl)picolinamide]	–	–	++ (++: −5 to −6)
CC(=O)N1CCN(c2ccc(C(=O)Nc3nc(-c4ccccc4Cl)cs3)c(C)c2)CC1 [compound 473, 4-(4-acetylpiperazin-1-yl)-N-(4-(2-chlorophenyl)thiazol-2-yl)-2-methylbenzamide]	–	–	+++ (+++: <−6)
CC(=O)N1CCN(c2cc(C)c(C(=O)Nc3nc(-c4ccccc4Cl)cs3)c(C)c2)CC1 [compound 474]	–	–	− (−: inactive)
NC1CCN(c2ccc(C(=O)Nc3nc(-c4ccccc4Cl)cs3)nc2)CC1 [compound 475, 5-(4-aminopiperidin-1-yl)-N-(4-(2-chlorophenyl)thiazol-2-yl)picolinamide]	–	–	+++ (+++: <−6)
CNC1CCN(c2ccc(C(=O)Nc3nc(-c4ccccc4Cl)cs3)nc2)CC1 [compound 476]	–	–	− (−: inactive)
O=C(Nc1nc(-c2ccccc2Cl)cs1)c1ccc(N2CCCC(O)C2)cn1 (stereo not drawn) [compound 477, N-(4-(2-chlorophenyl)thiazol-2-yl)-5-(3-hydroxypiperidin-1-yl)picolinamide]	–	–	+++ (+++: <−6)
O=C(Nc1nc(-c2ccccc2Cl)cs1)c1ccc(N2CCC(CCO)CC2)cn1 [compound 478, N-(4-(2-chlorophenyl)thiazol-2-yl)-5-(4-(2-hydroxyethyl)piperidin-1-yl)picolinamide]	–	–	+++ (+++: <−6)
O=C(Nc1nc(-c2ccccc2Cl)cs1)c1ccc(N2CCC(CO)CC2)cn1 [compound 479, N-(4-(2-chlorophenyl)thiazol-2-yl)-5-(4-(hydroxymethyl)piperidin-1-yl)picolinamide]	–	–	+++ (+++: <−6)
CC(=O)NCc1ccccc1-c1csc(NC(=O)c2ccc(N3CCN(S(C)(=O)=O)CC3)cn2)n1 [compound 480]	–	–	− (−: inactive)
O=C(Nc1nc(-c2ccccc2Cl)cs1)c1ccc(N2CCCC2)cn1 [compound 481, N-(4-(2-chlorophenyl)thiazol-2-yl)-5-(pyrrolidin-1-yl)picolinamide]	–	–	+++ (+++: <−6)
C#CCCC1(CCN2CCN(c3ccc(C(=O)Nc4nc(-c5ccccc5Cl)cs4)cc3)CC2)N=N1 [compound 484, 4-(4-(2-(3-(but-3-yn-1-yl)-3H-diazirin-3-yl)ethyl)piperazin-1-yl)-N-(4-(2-chlorophenyl)thiazol-2-yl)benzamide hemiformate]	–	–	+++ (+++: <−6)
O=C(Nc1nc(-c2ccccc2Cl)cs1)c1ccc(N2CCC[C@@H](O)C2)cn1 [compound 487, (R)—N-(4-(2-chlorophenyl)thiazol-2-yl)-5-(3-hydroxypiperidin-1-yl)picolinamide]	–	–	+++ (+++: <−6)
O=C(Nc1nc(-c2ccccc2Cl)cs1)c1ccc(N2CCC[C@H](O)C2)cn1 [compound 488, (S)—N-(4-(2-chlorophenyl)thiazol-2-yl)-5-(3-hydroxypiperidin-1-yl)picolinamide]	–	–	+++ (+++: <−6)

From patent US20230212131A1, “COLLAGEN 1 TRANSLATION INHIBITORS AND METHODS OF USE THEREOF” (Anima Biotech Inc., priority 2020, published 2023)
